Positions count from the first letter of the chain named. No end group written: not given here.
How the values were obtained:
[1] = target: T1, DPA10103-DPB10201 (Homo sapiens, UniProt P04440+P20036, A65V/A84D/A85E/K98E); test: Competitive MHC class II binding assay, DPA10103-DPB10201
T1 sequence (P20036 29-260): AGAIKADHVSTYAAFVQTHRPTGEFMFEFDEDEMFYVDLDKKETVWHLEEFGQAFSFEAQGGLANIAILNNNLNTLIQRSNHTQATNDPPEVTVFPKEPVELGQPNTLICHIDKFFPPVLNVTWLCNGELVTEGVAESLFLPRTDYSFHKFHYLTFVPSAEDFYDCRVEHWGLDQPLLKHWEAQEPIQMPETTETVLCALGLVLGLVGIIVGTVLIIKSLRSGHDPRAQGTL
T1 sequence (P04440 30-258 A65V/A84D/A85E/K98E): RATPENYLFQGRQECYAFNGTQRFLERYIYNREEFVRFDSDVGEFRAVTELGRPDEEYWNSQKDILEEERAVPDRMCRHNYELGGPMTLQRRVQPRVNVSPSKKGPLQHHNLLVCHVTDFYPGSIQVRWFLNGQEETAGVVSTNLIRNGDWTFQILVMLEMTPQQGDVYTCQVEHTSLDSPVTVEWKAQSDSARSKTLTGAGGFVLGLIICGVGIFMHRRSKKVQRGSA

[2] = target: T2, DPA10103-DPB10401 (Homo sapiens, UniProt P04440+P20036); test: Competitive MHC class II binding assay, DPA10103-DPB10401
T2 sequence (P20036 29-260): T1 sequence (P20036 29-260)
T2 sequence (P04440 30-258): T1 sequence (P04440 30-258 A65V/A84D/A85E/K98E) with V36A, D55A, E56A, E69K

[3] = target: DRB4_0101 (Homo sapiens, UniProt P01903+P13762, G164S); test: Competitive MHC class II binding assay, DRB4_0101
[4] = target: DRB1_0405 (Homo sapiens, UniProt P01903+P01911, A100R/A169T/D86S/F76Y/I96L/K127E/L162R/M171V/N62H/P40V/Q125Y/R42H/S133A/S149N/S66Y/V115G/V209L/W38E); test: Competitive MHC class II binding assay, DRB1_0405
[5] = target: DRB1_1201 (Homo sapiens, UniProt P01903+P01911, A100R/A169T/D57E/D86V/F55L/H45Y/K41T/L162R/M171V/P40S/Q125H/Q178H/Q39Y/Q99D/R42G/S66L/T262R/V114A/V67L/W38E/Y59H/Y61H/Y89S); test: Competitive MHC class II binding assay, DRB1_1201
[6] = target: DRB3_0202 (Homo sapiens, UniProt P01903+P79483, A212P/D57E/F66Y/L67A/R103Q/R218S/R40L/S89Y/T80R/V86D/Y55F/Y59H); test: Competitive MHC class II binding assay, DRB3_0202
[7] = target: DRB1_0101 (Homo sapiens, UniProt P01903+P01911, A100R/D57E/F55L/F60I/F76Y/I96L/L162R/M171V/P40L/Q125E/R42F/V115G/Y59C); test: Competitive MHC class II binding assay, DRB1_0101;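 further: competition against a radiolabeled probe peptide (0.1–1 nM) for purified HLA class II protein over 2–4 days, bound counts read after antibody capture, six competitor levels across 100,000-fold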
[8] = target: DRB1_0901 (Homo sapiens, UniProt P01903+P01911, A100R/A103E/D57H/D86V/F55Y/F60I/F76Y/I96F/K127E/L162R/M171V/P40D/Q125H/Q99R/R33Q/R42F/S133A/S66N/T210M/V115G/W38K/Y107V/Y59G/Y89S); test: Competitive MHC class II binding assay, DRB1_0901;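 further: displacement of a radiolabeled probe peptide from purified HLA class II protein, bound counts read after two to four days incubation, six concentrations spanning 100,000-fold, unlabeled probe as reference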
[9] = target: DRB1_1101 (Homo sapiens, UniProt P01903+P01911, A100R/A169T/A87E/I96F/K41T/L162R/M171V/P40S/Q125H/Q178H/Q39Y/Q99D/R42S/S66Y/T262R/V115G/W38E); test: Competitive MHC class II binding assay, DRB1_1101
[10] = target: DRB1_0802 (Homo sapiens, UniProt P01903+P01911, A100R/A103L/A169T/F76Y/H45Y/I96F/K41T/L162R/M171V/P40S/Q125H/Q178H/Q39Y/Q99D/R218S/R42G/S66Y/V115G/W38E); test: Competitive MHC class II binding assay, DRB1_0802
[11] = target: DRB1_1302 (Homo sapiens, UniProt P01903+P01911, A100E/A169T/K41T/L162R/M171V/P40S/Q125H/Q178H/Q39Y/Q99D/R42S/S66N/T262R/V115G/W38E/Y61H); test: Competitive MHC class II binding assay, DRB1_1302;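 further: purified HLA class II protein incubated two to four days with a radiolabeled reference binder and test peptide at six concentrations over a 100,000-fold range, complex-bound radioactivity counted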
[12] = target: DQA10501-DQB10201 (Homo sapiens, UniProt P01909+P01920, A45G/A70V/D89A/E106A/E77G/E98D/H199R/L107V/N214S/P84L/P87L/T103K/T109R/T172A/T60S/V78E/V99I/Y58L/Y62S/Y69I/Y79F); test: Competitive MHC class II binding assay, DQA10501-DQB10201
[13] = target: DQA10102-DQB10602; test: Competitive MHC class II binding assay, DQA10102-DQB10602; details: read-out: HLA-DQA10102-DQB10602; positive binding at cutoff 1000 nM
[14] = target: DQA10501-DQB10301 (Homo sapiens, UniProt P01909+P01920); test: Competitive MHC class II binding assay, DQA10501-DQB10301
[15] = target: DRB1_0701 (Homo sapiens, UniProt P01903+P01911, A100R/A102G/A103Q/D57E/D86V/E43K/F76Y/K127E/L162R/M171V/P40G/Q125H/Q99D/R33Q/R42Y/R54Q/S133A/S66F/T210M/V115G/Y107V/Y59L/Y89S); test: Competitive MHC class II binding assay, DRB1_0701;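 further: displacement of a radiolabeled reference peptide from purified HLA class II protein, with complex-bound radioactivity counted after 2–4 days of incubation and six concentrations spanning a 100,000-fold range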
[16] = target: DRB1_1501 (Homo sapiens, UniProt P01903+P01911); test: Competitive MHC class II binding assay, DRB1_1501
[17] = target: DRB5_0101 (Homo sapiens, UniProt P01903+Q30154); test: Competitive MHC class II binding assay, DRB5_0101
[18] = target: DRB1_0301 (Homo sapiens, UniProt P01903+P01911, A100K/A102G/A103R/A169T/F55Y/I96L/K41T/L162R/M171V/P40S/Q125H/Q178H/Q39Y/R42S/S66N/T106N/T262R/W38E/Y61H); test: Competitive MHC class II binding assay, DRB1_0301
[19] = target: DRB1_0401 (Homo sapiens, UniProt P01903+P01911, A100K/A169T/F76Y/I96L/K127E/L162R/M171V/N62H/P40V/Q125Y/R42H/S133A/S149N/S66Y/V115G/V209L/W38E); test: Competitive MHC class II binding assay, DRB1_0401
[20] = target: DRB3_0101 (Homo sapiens, UniProt P01903+P79483); test: Competitive MHC class II binding assay, DRB3_0101

Measured: IC50

CC[C@H](C)[C@H](NC(=O)[C@H](CCSC)NC(=O)[C@H](CCCNC(=N)N)NC(=O)[C@H](Cc1ccccc1)NC(=O)[C@H](CCCCN)NC(=O)[C@@H](NC(=O)[C@H](CCSC)NC(=O)[C@H](CC(N)=O)NC(=O)[C@H](Cc1ccc(O)cc1)NC(=O)[C@@H](NC(=O)[C@@H](N)CCC(=O)O)[C@@H](C)CC)C(C)C)C(=O)N[C@@H](C)C(=O)NCC(=O)N[C@@H](CCC(N)=O)C(=O)N[C@@H](CCC(=O)O)C(=O)O [pep-117]
< 1 µM: [1] | [2]

CC[C@H](C)[C@H](NC(=O)CNC(=O)[C@@H](N)CCCNC(=N)N)C(=O)N[C@@H](CCC(=O)O)C(=O)N[C@@H](Cc1ccc(O)cc1)C(=O)N[C@H](C(=O)N[C@@H](CCC(N)=O)C(=O)N[C@@H](Cc1c[nH]cn1)C(=O)N[C@@H](CC(N)=O)C(=O)NCC(=O)N[C@H](C(=O)N[C@H](C(=O)N[C@@H](CCC(N)=O)C(=O)N[C@@H](CCC(=O)O)C(=O)N[C@@H](CO)C(=O)N[C@@H](Cc1ccc(O)cc1)C(=O)N[C@@H](Cc1ccc(O)cc1)C(=O)N[C@@H](CCCNC(=N)N)C(=O)N[C@@H](Cc1ccc(O)cc1)C(=O)N[C@H](C(=O)N[C@@H](C)C(=O)N[C@@H](CCCNC(=N)N)C(=O)O)C(C)C)C(C)C)C(C)C)[C@@H](C)CC [pep-123]
not listed: [18] | [19] | [20]
< 1 µM: all other assays above

IEYIQHNGVVQESYYRYVAR [pep-049]
not listed: [3] | [7] | [10]
< 1 µM: all other assays above

Reference: patent US20160251403A1, “PEPTIDE COMBINATIONS AND USES THEREOF IN TREATING DUST MITE ALLERGY” (ALK-ABELLO A/S, priority 2013, published 2016)
